System: castrated male cynomolguses
Assay: Serum DHEA and testosterone in castrated male cynomolguses after repeated oral administration (RIA)
Format: in vivo
Settings: castrated male cynomolgus, 7.5 or 15 mg/kg/dose oral, twice a day for one week
Protocol: (+)-6-(7-Hydroxy-6,7-dihydro-5H-pyrrolo[1,2-c]imidazol-7-yl)-N-methyl-2-naphthamide was used as a test compound belonging to compound (I′). For oral administration, the test compound was weighed and placed in a mortar, 0.5% methylcellulose solution was added thereto, and the mixture was sufficiently admixed with a pestle to give a suspension.
6 to 12-year-old castrated male cynomolguses were divided into two groups (7.5 mg/kg/time test compound administration group and 15 mg/kg/time test compound administration group) each including 3 cynomolguses such that blood DHEA concentration would be impartial. The test compound was repeatedly administered orally twice a day (bid) for one week. Blood samples were collected twice a day from 3 days prior to the administration through the final day of administration. Vehicle (0.5% methylcellulose) was administered about one month after the completion of administration, and blood samples were collected according to the same schedule. Serum DHEA and serum testosterone concentrations were measured by RIA (radioimmunoassay).
The serum DHEA concentrations of the test compound administration group are shown in FIG. 1, and the serum DHEA concentrations of the vehicle administration group where vehicle was administered about a month after completion of the administration of the test compound are shown in FIG. 2. […]

## CNC(=O)c1ccc2cc(C3(O)CCn4cncc43)ccc2c1 (single isomer, unassigned; (+)) [test compound, (+)-6-(7-Hydroxy-6,7-dihydro-5H-pyrrolo[1,2-c]imidazol-7-yl)-N-methyl-2-naphthamide]
FIG. 1, maintained at low levels during the administration period
  serum DHEA concentration: decreased
FIG. 3, maintained at low levels during the administration period
  serum testosterone concentration: decreased

— patent publication US20140256693A1, “PYRROLO [1,2-C] IMIDAZOLE DERIVATIVES FOR USE IN THE PROPHYLAXIS OR TREATMENT OF CANCER WHICH IS REFRACTORY TO KNOWN CANCER THERAPIES” (TAKEDA PHARMACEUTICAL COMPANY LIMITED, priority 2007, published 2014)
